Legend:
[1] = target: T1, Nuclear receptor ROR-gamma (Homo sapiens, UniProt P51449); assay: Agonist activity at Gal4-fused RORgammat DNA binding domain (unknown origin) expressed in 293T cells assessed as SRC1 coactivator recruitment in presence of ursolic acid by TR-FRET assay; format: cell-based
T1 sequence (P51449 whole entry): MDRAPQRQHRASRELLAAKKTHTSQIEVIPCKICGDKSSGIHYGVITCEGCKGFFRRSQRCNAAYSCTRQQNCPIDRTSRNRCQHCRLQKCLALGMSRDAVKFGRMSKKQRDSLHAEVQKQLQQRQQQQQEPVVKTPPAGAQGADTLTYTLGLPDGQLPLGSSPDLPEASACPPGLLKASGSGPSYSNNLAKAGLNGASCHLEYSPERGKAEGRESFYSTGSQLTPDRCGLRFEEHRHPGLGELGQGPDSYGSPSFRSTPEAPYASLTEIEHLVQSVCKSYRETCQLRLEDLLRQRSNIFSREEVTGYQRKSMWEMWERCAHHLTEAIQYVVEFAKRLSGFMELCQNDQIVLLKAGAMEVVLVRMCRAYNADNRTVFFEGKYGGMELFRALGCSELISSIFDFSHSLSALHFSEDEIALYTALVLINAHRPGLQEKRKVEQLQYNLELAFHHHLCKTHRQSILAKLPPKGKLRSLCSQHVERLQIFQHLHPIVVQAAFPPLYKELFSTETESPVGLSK

[2] = target: T2, Nuclear receptor ROR-gamma (Homo sapiens) (UniProt P51449); assay: Agonist activity at Gal4-fused DBD RORgammat LBD (unknown origin) expressed in HEK293 cells assessed as coactivator recruitment at <0.5 uM incubated for overnight in presence of ursolic acid by luciferase reporter gene Assay relative to control; format: cell-based
T2 sequence (whole entry): T1 sequence (P51449 whole entry)

[3] = target: T2, Nuclear receptor ROR-gamma (Homo sapiens); assay: Agonist activity at His tagged human RORgammat LBD (unknown origin) expressed in baculovirus infected sf9 cells assessed as biotinylated-LXXLL peptide coactivator recruitment at <0.5 uM incubated for overnight by TR-FRET Assay relative to control
[4] = target: T1, Nuclear receptor ROR-gamma; assay: Agonist activity at 6xHis tagged human RORgammat LBD (262 to 507 residues) expressed in Escherichia coli BL21 (DE3) assessed as biotinylated SRC1-2 peptide coactivator recruitment by AlphaScreen assay
[5] = target: T1, Nuclear receptor ROR-gamma; assay: Agonist activity at His tagged RORgammat LBD (unknown origin) expressed in baculovirus infected sf9 cells assessed as biotinylated-LXXLL peptide coactivator recruitment incubated for overnight by TR-FRET Assay
[6] = target: T1, Nuclear receptor ROR-gamma; assay: Agonist activity at Gal4-fused DBD RORgammat LBD (unknown origin) expressed in HEK293 cells assessed as coactivator recruitment incubated for overnight in presence of ursolic acid by luciferase reporter gene Assay; format: cell-based

CC(C)=CCC[C@@H](C)[C@H]1CC[C@H]2C3=C(CC[C@]12C)[C@@]1(C)CC[C@H](O)C[C@@H]1CC3
EC50 [1]: 110 nM

COc1c(Cl)cccc1-c1ccc2c(c1)N(S(=O)(=O)c1cccc(C(F)(F)F)c1)C[C@H](CCC(=O)O)O2
Activity [2]: > 200% | Activity [3]: > 200%

CC(C)CCC[C@@](C)(O)[C@H]1CC[C@H]2[C@@H]3CC=C4C[C@@H](O)CC[C@]4(C)[C@H]3CC[C@@]21C
EC50 [4]: 20 to 40 nM

O=C(O)C1Cc2ccc(OCc3c(F)cccc3Cl)cc2N(S(=O)(=O)c2cccc(C(F)(F)F)c2)C1 (stereo not given)
Activity [2]: > 200% | Activity [3]: > 200%

CC(C)CC[C@@H](O)[C@@H](C)[C@H]1CC[C@H]2[C@@H]3CC=C4C[C@@H](O)CC[C@]4(C)[C@H]3CC[C@]12C [22(R)-HYDROXYCHOLESTEROL]
EC50 [4]: 20 to 40 nM

CC(C)CCC[C@@H](C)[C@H]1CC[C@H]2[C@@H]3CC=C4C[C@@H](O)CC[C@]4(C)[C@H]3CC[C@]12C [CHOLESTEROL]
EC50 [4]: 20 nM

C[C@H]1CN(S(=O)(=O)c2cccc(C(F)(F)F)c2)c2nc(COc3c(F)cccc3Cl)ccc2O1
EC50 [5]: < 500 nM | EC50 [6]: < 500 nM

CC(C)=CCC[C@@H](C)[C@H]1CC[C@H]2[C@@H]3CC=C4C[C@@H](O)CC[C@]4(C)[C@H]3CC[C@]12C [DESMOSTEROL]
EC50 [1]: 80 nM

CCN(c1cccc(OCc2c(Cl)cccc2Cl)c1)S(=O)(=O)c1cccc(C(F)(F)F)c1
Activity [2]: > 200% | Activity [3]: > 200%

C/C(=C\c1ccc2c(c1)N(S(=O)(=O)c1cccc(C(F)(F)F)c1)C[C@H](CCc1nn[nH]n1)O2)c1c(F)cccc1Cl
Activity [2]: > 200% | Activity [3]: > 200%

From ChEMBL document CHEMBL4130622, “Retinoic Acid Receptor-Related Orphan Receptor γt (RORγt) Agonists as Potential Small Molecule Therapeutics for Cancer Immunotherapy” (J Med Chem, 2018)
